How the values were obtained:
[1] = system: rat hepatoma (H4IIE) cell line; assay: CeeTox membrane toxicity, α-GST leakage ELISA; type: cell-based; conditions: H4IIE cells, 24hour; membrane toxicity measured using GST leakage
Description: (§1) All Ceetox assays utilizing the rat hepatoma (H4IIE) cell line as the test system were conducted by CeeTox Inc Kalamazoo, MI. Ceetox assays are described in detail by McKim and Lapchak and according to a Standard Operating Procedure (SOP).
(§2) Rat hepatoma derived H4IIE cells were used as the test system because the cell have a rapid doubling time in culture (i.e. 22 hours). The culture medium used for these cells was Eagles Minimum Essential Medium (MEM) with 10% bovine serum and 10% calf serum (Invitrogen). H4IIE cells were seeded into 96-well plates and allowed to equilibrate for approximately 48 hr before drug assay to allow cells to move into a stable growth phase prior to treatment. Following the equilibration period the cells were exposed to J-147 at concentrations of 1–300 μM. Three to 7 replicates were done for each assay to construct concentration-response curves. Solubility was determined by Nephalometry techniques immediately after dosing and prior to harvesting the cells at 6 or 24 hr. Following the incubation period, cells or their supernatant (culture medium) were analyzed for changes in cell proliferation (cell mass), membrane leakage, mitochondrial function, oxidative stress, and apoptosis. The resultant exposure concentration response curves were graphed and analyzed for determining the concentration that produced a half maximal response or TC50 [28, 30].
(§3) The presence of α-Glutathione S-transferase (α-GST), an enzyme leakage marker, was measured in the culture medium using an ELISA assay purchased from Argutus Medical. […] Absorbance values were measured with a Packard SpectraCount™ reader at 450 nm and reference absorbance at 650 nm. Leakage of α-GST from the cell into the culture medium was determined by collecting the culture medium at the end of the exposure period. Thus, the values measured represent total enzyme leakage lost over the exposure period. […] Sample absorbance was read at 570 nm and reference absorbance at 650 nm with a Packard Fusion reader. […]

[2] = system: rat hepatoma (H4IIE) cell line; assay: CeeTox MTT reduction assay; type: cell-based; conditions: H4IIE cells, 24hour
Description: as §1, §2, §3

[3] = system: rat hepatoma (H4IIE) cell line; assay: CeeTox cellular ATP content, luciferin/luciferase; type: cell-based; conditions: H4IIE cells, 24-hr exposure
Description: as §1, §2
Adenosine triphosphate (ATP) content was determined using a modification of a standard luciferin/luciferase luminescence assay based on a reaction between ATP + D-luciferin + oxygen catalyzed by luciferase to yield Oxyluciferin + AMP + PPi + CO2 + light. The emitted light is proportional to the amount of ATP present. […] Plates were analyzed immediately or stored at −20°C until needed. […] ATP was quantified by adding ATP substrate solution and then reading luminescence on a Packard Fusion Luminescence reader. […] Background corrected luminescence was used to determine percent change relative to controls by dividing treated values by control values and multiplying by 100.

[4] = system: rat hepatoma (H4IIE) cell line; assay: Lipid peroxidation measured as 8-isoprostane ELISA; type: cell-based; parameters: key to Membrane Lipid Peroxidation: 0=No Change; 1=Modest increase with maximum values<15 pg/mL; 2=Concentration related increase with maximum values>15 pg/mL; 3=Concentration related increase with a maximum value>30 pg/mL; conditions: H4IIE cells; for Membrane Lipid Peroxidation: 8-isoprostane score
Description: as §2
8-ISO levels were determined using an ELISA (Cayman Chemical Inc). 8-ISO is a member of a family of eicosanoids produced nonenzymatically by random oxidation of tissue phospholipids by oxygen radicals. Therefore, an increase in 8-ISO is an indirect measure of increased lipid peroxidation. At the end of the exposure period, plates were either analyzed immediately or stored at −80°C until needed for analysis. Color development, which is […] proportional to the amount of 8-ISO present in the sample, was read on a Packard Fusion or equivalent plate reader at 415 nm. Background absorbance produced from Ellman’s reagent is subtracted from all wells. Non-specific binding is subtracted from the maximum binding wells to give a corrected maximum binding expressed as Bo. The percent of bound (B) relative to maximum binding capacity (Bo) for all unknown samples and for standards was determined an expressed as (%B/Bo). The %B/Bo for standards was plotted against the log of 8-ISO added to yield the final standard curve. This curve was used to convert %B/Bo to pg 8-ISO/mL of sample.

P-glycoprotein (PgP) = P-glycoprotein (PgP) binding using the MTT assay with and without cyclosporin A; type: cell-based, rat; parameters: key to % Difference (PgP interaction ranking): NC=No change; conditions: for % Control (Compound + CSA) / % Control (Compound): MTT, H4IIE cells, single exposure concentration (50 μM), 24-hr; for % Control (Compound + CSA): with cyclosporin A; for % Control (Compound): without CSA; for % Difference (PgP interaction ranking): difference in the absence and presence of CSA
Description: For this assay, cells are incubated with and without cyclosporin A (CSA) (a PgP inhibitor) at a single exposure concentration (50 μM) and the difference in toxicity determined with the MTT assay. Compounds with increased toxicity in the presence of CSA have a high probability of binding to PgP proteins. However, compounds of low toxicity will typically not show a difference relative to the addition of CSA, regardless of whether they bind to PgP. At the end of the 24-hr exposure period the culture medium was removed and the remaining attached cells were assayed for their ability to reduce MTT. Viable cells will have the greatest amount of MTT reduction and highest absorbance values. Percent control values were determined by dividing the mean absorbance/fluorescence of the treatment group by the mean absorbance of the control group and multiplying by 100.

Row | SMILES | Mem Tox TC50 [1] | MTT TC50 [2] | ATP TC50 [3] | Membrane Lipid Peroxidation [4] | % Control (Compound + CSA) (P-glycoprotein (PgP)) | % Control (Compound) (P-glycoprotein (PgP)) | % Difference (PgP interaction ranking) (P-glycoprotein (PgP)) | Effect on 8-isoprostane [4] | Interaction with Permeability-glycoprotein (P-glycoprotein (PgP); cells incubated with and without CSA, 50 μM)
1 | C=C(C)[C@H]1Cc2c(ccc3c2O[C@@H]2COc4cc(OC)c(OC)cc4[C@@H]2C3=O)O1 [Rotenone, rotenone] | 930 nM | 70 nM | 50 nM | 0 | 86.1% | 80.5% | NC | – | –
2 | CC[C@@]1(O)C(=O)OCc2c1cc1n(c2=O)Cc2cc3ccccc3nc2-1 [Camptothecin, camptothecin] | >300000 nM | 500 nM | 300 nM | 1 (1=Modest increase with maximum values<15 pg/mL) | 85.3% | 76.6% | NC | – | –
3 | COc1cccc(/C=N/N(C(=O)C(F)(F)F)c2ccc(C)cc2C)c1 [J-147, (E)-N-(2,4-Dimethylphenyl)-2,2,2-trifluoro-N′-(3-methoxybenzylidene) acetohydrazide] | >300000 nM | 228000 nM | 210000 nM | 0 | 92.1% | 93.7% | NC | did not have any effect | low interaction

Reference: publication PMC4215638, “J-147 a Novel Hydrazide Lead Compound to Treat Neurodegeneration: CeeTox™ Safety and Genotoxicity Analysis” (Journal of neurology & neurophysiology, 2013)
